From PubChem BioAssay AID1963838 (Molecular Pharmacology Branch, DTP, NCI, 2024)

Tested on: 855422-203-R-J1-PDC complex spheroid viability
Assay: Anticancer human tumor 855422-203-R-J1-PDC patient-derived bladder carcinoma cell line growth inhibition [POLQ]
Settings: for IC50: curve of first compound; for viability, T/C: stronger effect = lower value
Method in brief: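 PDC + HUVEC + MSC complex spheroids; POLQ inhibitors ± partner drugs; top conc. at/near clinical Cmax, else 10 microM (SN-38 1 microM), half-log dilutions; 37 degrees C, 5% CO2.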

[1] = second compound 0.0316 µM, first compound 0.0316 µM
[2] = second compound 0.0316 µM, first compound 0.1 µM
[3] = second compound 0.0316 µM, first compound 0.316 µM
[4] = second compound 0.0316 µM, first compound 1 µM
[5] = second compound 0.0316 µM, first compound 3.16 µM
[6] = second compound 0.0316 µM, first compound 10 µM
[7] = second compound 0.1 µM, first compound 0.0316 µM
[8] = second compound 0.1 µM, first compound 0.1 µM
[9] = second compound 0.1 µM, first compound 0.316 µM
[10] = second compound 0.1 µM, first compound 1 µM
[11] = second compound 0.1 µM, first compound 3.16 µM
[12] = second compound 0.1 µM, first compound 10 µM
[13] = second compound 0.316 µM, first compound 0.0316 µM
[14] = second compound 0.316 µM, first compound 0.1 µM
[15] = second compound 0.316 µM, first compound 0.316 µM
[16] = second compound 0.316 µM, first compound 1 µM
[17] = second compound 0.316 µM, first compound 3.16 µM
[18] = second compound 0.316 µM, first compound 10 µM
[19] = second compound 1 µM, first compound 0.0316 µM
[20] = second compound 1 µM, first compound 0.1 µM
[21] = second compound 1 µM, first compound 0.316 µM
[22] = second compound 1 µM, first compound 1 µM
[23] = second compound 1 µM, first compound 3.16 µM
[24] = second compound 1 µM, first compound 10 µM
[25] = second compound 3.16 µM, first compound 0.0316 µM
[26] = second compound 3.16 µM, first compound 0.1 µM
[27] = second compound 3.16 µM, first compound 0.316 µM
[28] = second compound 3.16 µM, first compound 1 µM
[29] = second compound 3.16 µM, first compound 3.16 µM
[30] = second compound 3.16 µM, first compound 10 µM
[31] = second compound 10 µM, first compound 0.0316 µM
[32] = second compound 10 µM, first compound 0.1 µM
[33] = second compound 10 µM, first compound 0.316 µM
[34] = second compound 10 µM, first compound 1 µM
[35] = second compound 10 µM, first compound 3.16 µM
[36] = second compound 10 µM, first compound 10 µM
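Note: spheroids exposed to compounds for seven days before readout.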

CC1COCCN1c1cc(C2(O)CC3CCC(C2)O3)c2cnn(-c3ccn[nH]3)c2n1 (centres undefined) + Nc1ccc(C#CCN(C(=O)Cc2ncc(C(F)(F)F)cc2C(F)(F)F)c2ccc(F)cc2)nn1
IC50 (second compound 0.0316 µM): 217 nM | IC50 (second compound 0.1 µM): 194 nM | IC50 (second compound 0.316 µM): 174 nM | IC50 (second compound 1 µM): 170 nM | IC50 (second compound 3.16 µM): 147 nM | IC50 (second compound 10 µM): 98.9 nM | viability, T/C [1]: 111% | viability, T/C [2]: 105% | viability, T/C [3]: 23.2% | viability, T/C [4]: 12.7% | viability, T/C [5]: 11.1% | viability, T/C [6]: 7.13% | viability, T/C [7]: 139% | viability, T/C [8]: 84% | viability, T/C [9]: 24.7% | viability, T/C [10]: 12% | viability, T/C [11]: 11.2% | viability, T/C [12]: 5.82% | viability, T/C [13]: 117% | viability, T/C [14]: 78.9% | viability, T/C [15]: 18.5% | viability, T/C [16]: 13.2% | viability, T/C [17]: 12% | viability, T/C [18]: 5.73% | viability, T/C [19]: 104% | viability, T/C [20]: 72.7% | viability, T/C [21]: 23.1% | viability, T/C [22]: 10.9% | viability, T/C [23]: 10.2% | viability, T/C [24]: 5.09% | viability, T/C [25]: 107% | viability, T/C [26]: 69% | viability, T/C [27]: 12.6% | viability, T/C [28]: 14.6% | viability, T/C [29]: 9.39% | viability, T/C [30]: 5.42% | viability, T/C [31]: 151% | viability, T/C [32]: 48.6% | viability, T/C [33]: 17% | viability, T/C [34]: 11.1% | viability, T/C [35]: 9.46% | viability, T/C [36]: 4.88%

CC1COCCN1c1cc(C2(S(C)(=N)=O)CC2)nc(-c2ccnc3[nH]ccc23)n1 (centres undefined) + Cc1cccc(N(C)C(=O)C2C(O)CCN2c2nc(C)cc(C(F)(F)F)c2C#N)c1
IC50 (second compound 0.0316 µM): 2560 nM | IC50 (second compound 0.1 µM): 2660 nM | IC50 (second compound 0.316 µM): 2500 nM | IC50 (second compound 1 µM): 2490 nM | IC50 (second compound 3.16 µM): 2370 nM | IC50 (second compound 10 µM): 2140 nM | viability, T/C [1]: 112% | viability, T/C [2]: 97.3% | viability, T/C [3]: 107% | viability, T/C [4]: 106% | viability, T/C [5]: 37.4% | viability, T/C [6]: 12.5% | viability, T/C [7]: 94.7% | viability, T/C [8]: 107% | viability, T/C [9]: 115% | viability, T/C [10]: 100% | viability, T/C [11]: 41.1% | viability, T/C [12]: 10.7% | viability, T/C [13]: 96.3% | viability, T/C [14]: 106% | viability, T/C [15]: 101% | viability, T/C [16]: 107% | viability, T/C [17]: 36.6% | viability, T/C [18]: 10.6% | viability, T/C [19]: 110% | viability, T/C [20]: 123% | viability, T/C [21]: 115% | viability, T/C [22]: 103% | viability, T/C [23]: 36% | viability, T/C [24]: 10.8% | viability, T/C [25]: 105% | viability, T/C [26]: 119% | viability, T/C [27]: 94.5% | viability, T/C [28]: 105% | viability, T/C [29]: 31.4% | viability, T/C [30]: 10.2% | viability, T/C [31]: 103% | viability, T/C [32]: 102% | viability, T/C [33]: 105% | viability, T/C [34]: 97.5% | viability, T/C [35]: 25.7% | viability, T/C [36]: 14.1%
